Values after ≈ are worked out from the molar mass of the structure shown.
Tests used:
A Terreus 49 = experiment: MIC, YAG medium, A Terreus 49; format: cell-based, Aspergillus terreus; conditions: Aspergillus terreus; YAG medium; read-out: MIC A Terreus 49
Method: Measurement of Minimum Inhibitory Concentrations (MICs)
Between 1 and 5 mgs of compound were accurately weighed out into a sterile Eppendorf tube. The compound was dissolved in DMSO to give a solution containing 5 mg/ml. Tubes were stored at −20° C. until required.
On the day of testing thawed solutions were vortex mixed to ensure homogeneity. 30 μl of solution was removed and added to 570 μl of sterile water in a separate sterile Eppendorf. The thoroughly mixed solution was used to prepare a series of doubling dilutions in water, in a deep well plate. Eleven replicate plates were prepared using a Minitrak by aspirating 20 μl from each well into eleven clear polystyrene 96 well plates.
Spores of Aspergillus spp (Aspergillus fumigatus, Aspergillus terreus, Aspergillus niger and Aspergillus flavus) were harvested from cultures grown on Sabarauds agar for 5 days, and resuspended in PBS/Tween 80 to approx 1×10^7 cfu/ml Other filamentous fungi (Fusarium solani, Scedosporium spp., Trichophyton spp., Absidia corymbifera), were grown on Sabarauds agar for 2-10 days and spores/hyphae resuspended in PBS/Tween to give approx 1×10^7 cfU/ml. Candida species (Candida albicans, Candida glabrata, Candida krusei, Candida parapsilosis and Candida tropicalis) were grown on Sabarauds agar, cells were harvested from the agar using a sterile loop and resuspended in PBS/Tween 80 to approx 1×10^6 cfu/ml. Each organism suspension was diluted in RPMI medium, containing 2% glucose and 0.135M MOPS buffer (pH7.0) to 2×10^4 cfu/ml for Aspergillus spp and other filamentous fungi and 2×10^3 cfu/ml for yeast. 80 μl of an organism suspension was added to each well of the plate containing drug dilutions.
This produced MIC plates with a drug range 50-0.05 mg/L and organism inocula of 1-2×10^4 cfu/ml for Aspergillus spp and other filamentous fungi and 1-2×10^3 cfu/ml for yeasts. All plates were incubated for 24-48 hrs at 35° C. Growth was assessed by monitoring the optical density at 485 nm for each well. The MIC of a compound is the lowest drug concentration that inhibits growth of an organism by >80% compared with a drug free control. MICs are recorded as mg/L. Other growth media can be used for susceptibility testing, and the activity of the described compounds can also be assessed in a medium comprising, 1% glucose, 1% ammonium chloride and 0.5% yeast extract (YAG medium). To perform MIC tests in this medium, dilutions of compounds are prepared in microtitre plates as described above. Fungal strains to be tested are grown and harvested in an identical manner to that described above, each organism suspension is then diluted in YAG medium to 2×10^4 cfu/ml for Aspergillus spp and other filamentous fungi and 2×10^3 cfu/ml for yeast. 80 μl of an organism suspension was added to each well of the plate containing drug dilutions. This produced MIC plates with a drug range 50-0.05 mg/L and organism inocula of 1-2×10^4 cfu/ml for Aspergillus spp and other filamentous fungi and 1-2×10^3 cfu/ml for yeasts. All plates were incubated for 24 hrs at 35° C. Growth was assessed by monitoring the optical density at 485 nm for each well. The MIC of a compound is the lowest drug concentration that inhibits growth of an organism by >70% compared with a drug free control. MICs are recorded as mg/L. In cases where the MIC of an organism is […]0.05 mg/L the MIC is repeated using a concentration range of 0.5-0.0005 mg/L. MIC tests in YAG medium have more clear-cut endpoints and have slightly lower MICS than those performed in RPMI medium.
The following organisms were tested: Aspergillus fumigatus AF293 and Aspergillus fumigatus AF210, Aspergillus niger, Aspergillus terreus, Aspergillus favus, Candida albicans, Candida krusei, Candida tropicalis, Candida glabrata, Candida parapsilosis, Trichophyton rubrum, Trichophyton mentagrophytes, Scedosporium prolificans, Scedosporium apiospermum, Absidia corymbifera, Fusarium solani.

Aspergillus niger = experiment: MIC, YAG medium, Aspergillus niger; format: cell-based; conditions: Aspergillus niger; YAG medium; read-out: MIC A Niger 1
Procedure, shortened: (§1)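 MICs in mg/L are lowest drug levels suppressing growth (OD 485 nm) relative to drug-free wells: Aspergillus in YAG at >70%, 24 hrs; Candida albicans in buffered RPMI at >80%, 24-48 hrs. Both incubated at 35° C across 50-0.05 mg/L doubling dilutions.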

Aspergillus terreus = experiment: MIC, YAG medium, Aspergillus terreus; format: cell-based; conditions: Aspergillus terreus; YAG medium; read-out: MIC A Terreus 4
Procedure, shortened: as §1

Aspergillus flavus = experiment: MIC, YAG medium, Aspergillus flavus; format: cell-based; conditions: Aspergillus flavus; YAG medium; read-out: MIC A Flavus 01
Procedure, shortened: as §1

[1] = test system: Aspergillus fumigatus AF210; experiment: MIC, YAG medium, Aspergillus fumigatus AF210; format: cell-based; conditions: Aspergillus fumigatus, AF210; YAG medium; read-out: MIC A Fum. 210
Procedure, shortened: as §1

[2] = test system: Aspergillus fumigatus AF293; experiment: MIC, YAG medium, Aspergillus fumigatus AF293; format: cell-based; conditions: Aspergillus fumigatus, AF293; YAG medium; read-out: MIC A Fum. 293
Procedure, shortened: as §1

Compound	MIC (A Terreus 49) [µg/mL]	MIC (Aspergillus niger) [µg/mL]	MIC (Aspergillus terreus) [µg/mL]	MIC (Aspergillus flavus) [µg/mL]	MIC [1] [µg/mL]	MIC [2] [µg/mL]
O=C(Nc1cc(Cl)cc(Cl)c1)C(=O)c1c(-c2ccccc2)cc2ccccn12 [Example 220, N-(3,5-Dichloro-phenyl)-2-oxo-2-(2-phenyl-indolizin-3-yl)-acetamide]	0.008 (≈ 0.0195 µM)	0.062 (≈ 0.151 µM)	0.031 (≈ 0.0757 µM)	0.015 (≈ 0.0367 µM)	0.12 (≈ 0.293 µM)	0.12 (≈ 0.293 µM)
CC(C)(C#N)c1ccc(NC(=O)C(=O)c2c(-c3ccccc3)cc3ccccn23)cc1 [Example 221, N-[4-(Cyano-dimethyl-methyl)-phenyl]-2-oxo-2-(2-phenyl-indolizin-3-yl)-acetamide]	0.008 (≈ 0.0196 µM)	0.015 (≈ 0.0368 µM)	0.015 (≈ 0.0368 µM)	0.015 (≈ 0.0368 µM)	0.03 (≈ 0.0736 µM)	0.062 (≈ 0.152 µM)
CC(C)(C#N)c1cccc(NC(=O)C(=O)c2c(-c3ccccc3)cc3ccccn23)c1 [Example 228, N-[3-(Cyano-dimethyl-methyl)-phenyl]-2-oxo-2-(2-phenyl-indolizin-3-yl)-acetamide]	0.002 (≈ 0.00491 µM)	0.015 (≈ 0.0368 µM)	0.004 (≈ 0.00982 µM)	0.004 (≈ 0.00982 µM)	0.031 (≈ 0.0761 µM)	0.031 (≈ 0.0761 µM)
COc1ccc(NC(=O)C(=O)c2c(-c3ccccc3C)cc3ccccn23)cc1 [Example 232, N-(4-Methoxy-phenyl)-2-oxo-2-(2-o-tolyl-indolizin-3-yl)-acetamide]	0.015 (≈ 0.039 µM)	0.008 (≈ 0.0208 µM)	0.031 (≈ 0.0806 µM)	0.015 (≈ 0.039 µM)	0.062 (≈ 0.161 µM)	0.062 (≈ 0.161 µM)
COc1ccc(NC(=O)C(=O)c2c(-c3cccc(C)c3)cc3ccccn23)cc1 [Example 233, N-(4-Methoxy-phenyl)-2-oxo-2-(2-m-tolyl-indolizin-3-yl)-acetamide]	0.004 (≈ 0.0104 µM)	0.06 (≈ 0.156 µM)	0.008 (≈ 0.0208 µM)	0.004 (≈ 0.0104 µM)	0.25 (≈ 0.65 µM)	0.25 (≈ 0.65 µM)
COc1ccc(NC(=O)C(=O)c2c(-c3cccc(Cl)c3)cc3ccccn23)cc1 [Example 235, 2-[2-(3-Chloro-phenyl)-indolizin-3-yl]-N-(4-methoxy-phenyl)-2-oxo-acetamide]	0.008 (≈ 0.0198 µM)	0.12 (≈ 0.296 µM)	0.015 (≈ 0.0371 µM)	0.031 (≈ 0.0766 µM)	0.5 (≈ 1.24 µM)	0.5 (≈ 1.24 µM)
COc1ccc(NC(=O)C(=O)c2c(-c3ccc(C)cc3)cc3ccccn23)cc1 [Example 238, N-(4-Methoxy-phenyl)-2-oxo-2-(2-p-tolyl-indolizin-3-yl)-acetamide]	0.008 (≈ 0.0208 µM)	0.015 (≈ 0.039 µM)	0.015 (≈ 0.039 µM)	0.015 (≈ 0.039 µM)	0.25 (≈ 0.65 µM)	0.5 (≈ 1.3 µM)
O=C(Nc1ccc(F)cc1F)C(=O)c1c(-c2cccc(F)c2)cc2ccccn12 [Example 244, N-(2,4-Difluoro-phenyl)-2-[2-(3-fluoro-phenyl)-indolizin-3-yl]-2-oxo-acetamide]	0.1 (≈ 0.254 µM)	0.05 (≈ 0.127 µM)	0.2 (≈ 0.507 µM)	0.2 (≈ 0.507 µM)	> 50	> 50
N#Cc1cccc(-c2cc3ccccn3c2C(=O)C(=O)Nc2ccc(F)cc2F)c1 [Example 245, 2-[2-(3-Cyano-phenyl)-indolizin-3-yl]-N-(2,4-difluoro-phenyl)-2-oxo-acetamide]	0.8 (≈ 1.99 µM)	0.4 (≈ 0.997 µM)	0.4 (≈ 0.997 µM)	0.8 (≈ 1.99 µM)	6.25 (≈ 15.6 µM)	6.25 (≈ 15.6 µM)
C=CCOc1cc(F)ccc1NC(=O)C(=O)c1c(-c2ccccc2)cc2ccccn12 [Example 247, N-(2-Allyloxy-4-fluoro-phenyl)-2-oxo-2-(2-phenyl-indolizin-3-yl)-acetamide]	0.2 (≈ 0.483 µM)	3.1 (≈ 7.48 µM)	0.4 (≈ 0.965 µM)	1.6 (≈ 3.86 µM)	3.1 (≈ 7.48 µM)	3.1 (≈ 7.48 µM)
CCOC(=O)C(C)(C)NC(=O)C(=O)c1c(-c2ccccc2)cc2ccccn12 [Example 248, 2-Methyl-2-[2-oxo-2-(2-phenyl-indolizin-3-yl)-acetylamino]-propionic acid ethyl ester]	6.25 (≈ 16.5 µM)	0.4 (≈ 1.06 µM)	6.25 (≈ 16.5 µM)	> 50	12.5 (≈ 33 µM)	12.5 (≈ 33 µM)
CCOC(=O)C(C)(Cc1ccccc1)NC(=O)C(=O)c1c(-c2ccccc2)cc2ccccn12 (stereo not drawn) [Example 249, 2-Methyl-2-[2-oxo-2-(2-phenyl-indolizin-3-yl)-acetylamino]-3-phenyl-propionic acid ethyl ester]	1.6 (≈ 3.52 µM)	6.25 (≈ 13.8 µM)	1.6 (≈ 3.52 µM)	> 50	1.6 (≈ 3.52 µM)	0.8 (≈ 1.76 µM)

Further lines, results first:

MIC (A Terreus 49) [µg/mL]	MIC (Aspergillus niger) [µg/mL]	MIC (Aspergillus terreus) [µg/mL]	MIC (Aspergillus flavus) [µg/mL]	MIC [1] [µg/mL]	MIC [2] [µg/mL]	Compound
0.015 (≈ 0.0423 µM)	0.031 (≈ 0.0875 µM)	0.008 (≈ 0.0226 µM)	0.062 (≈ 0.175 µM)	0.25 (≈ 0.705 µM)	0.5 (≈ 1.41 µM)	Cc1ccccc1NC(=O)C(=O)c1c(-c2ccccc2)cc2ccccn12 [Example 202, 2-Oxo-2-(2-phenyl-indolizin-3-yl)-N-o-tolyl-acetamide]
0.008 (≈ 0.0209 µM)	0.031 (≈ 0.0808 µM)	0.015 (≈ 0.0391 µM)	0.008 (≈ 0.0209 µM)	0.062 (≈ 0.162 µM)	0.06 (≈ 0.156 µM)	CN(C)c1ccc(NC(=O)C(=O)c2c(-c3ccccc3)cc3ccccn23)cc1 [Example 203, N-(4-Dimethylamino-phenyl)-2-oxo-2-(2-phenyl-indolizin-3-yl)-acetamide]
0.015 (≈ 0.0358 µM)	0.031 (≈ 0.0739 µM)	0.015 (≈ 0.0358 µM)	0.031 (≈ 0.0739 µM)	0.25 (≈ 0.596 µM)	0.25 (≈ 0.596 µM)	O=C(Nc1ccc(Br)cc1)C(=O)c1c(-c2ccccc2)cc2ccccn12 [Example 204, N-(4-Bromo-phenyl)-2-oxo-2-(2-phenyl-indolizin-3-yl)-acetamide]
0.062 (≈ 0.162 µM)	0.062 (≈ 0.162 µM)	0.031 (≈ 0.0811 µM)	0.062 (≈ 0.162 µM)	0.5 (≈ 1.31 µM)	0.5 (≈ 1.31 µM)	CC(=O)c1ccc(NC(=O)C(=O)c2c(-c3ccccc3)cc3ccccn23)cc1 [Example 205, N-(4-Acetyl-phenyl)-2-oxo-2-(2-phenyl-indolizin-3-yl)-acetamide]
0.008 (≈ 0.0226 µM)	0.015 (≈ 0.0423 µM)	0.004 (≈ 0.0113 µM)	0.008 (≈ 0.0226 µM)	0.062 (≈ 0.175 µM)	0.062 (≈ 0.175 µM)	Cc1cccc(NC(=O)C(=O)c2c(-c3ccccc3)cc3ccccn23)c1 [Example 206, 2-Oxo-2-(2-phenyl-indolizin-3-yl)-N-m-tolyl-acetamide]
0.062 (≈ 0.161 µM)	0.12 (≈ 0.312 µM)	0.12 (≈ 0.312 µM)	0.031 (≈ 0.0806 µM)	0.5 (≈ 1.3 µM)	0.5 (≈ 1.3 µM)	CN(C)c1ccc(NC(=O)C(=O)c2c(-c3ccccc3)cc3ccccn23)cn1 [Example 229, N-(6-Dimethylamino-pyridin-3-yl)-2-oxo-2-(2-phenyl-indolizin-3-yl)-acetamide]
0.004 (≈ 0.0103 µM)	0.062 (≈ 0.159 µM)	0.008 (≈ 0.0206 µM)	0.031 (≈ 0.0797 µM)	0.25 (≈ 0.643 µM)	0.12 (≈ 0.309 µM)	Cc1ccc(Cl)cc1NC(=O)C(=O)c1c(-c2ccccc2)cc2ccccn12 [Example 246, N-(5-Chloro-2-methyl-phenyl)-2-oxo-2-(2-phenyl-indolizin-3-yl)-acetamide]

Source: patent US8486962B2, “Antifungal agents” (F2G Ltd., priority 2005, dated 2013)
